The source of these data is paper PMC11707700, “Exploiting fourth-generation synchrotron radiation for enzyme and photoreceptor characterization” (IUCrJ, 2025).

For assay [1], the target named is T1, SaBphP2-PCM (Allostigmatella aurantiaca, UniProt Q09E27).
T1 construct: gene STIAU_8420; photosensory core module (PAS-GAF-PHY), lacks C-terminal effector (histidine kinase) domain; recombinant; homodimer
T1 sequence (Q09E27 1-490): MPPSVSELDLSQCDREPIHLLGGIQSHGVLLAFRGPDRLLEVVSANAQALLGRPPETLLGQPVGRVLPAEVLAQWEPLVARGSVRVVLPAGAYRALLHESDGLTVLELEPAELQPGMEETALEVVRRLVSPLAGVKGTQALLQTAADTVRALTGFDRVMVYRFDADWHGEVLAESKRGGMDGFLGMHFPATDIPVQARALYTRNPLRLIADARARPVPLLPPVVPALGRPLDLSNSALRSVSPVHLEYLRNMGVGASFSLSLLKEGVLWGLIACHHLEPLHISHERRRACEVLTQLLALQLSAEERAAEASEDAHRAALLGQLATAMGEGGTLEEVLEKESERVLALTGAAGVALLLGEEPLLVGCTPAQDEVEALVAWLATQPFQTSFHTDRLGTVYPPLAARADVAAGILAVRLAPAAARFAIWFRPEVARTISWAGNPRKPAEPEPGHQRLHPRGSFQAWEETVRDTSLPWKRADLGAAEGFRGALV
The experiment in a line: serial synchrotron X-ray crystallography (room temperature). Format: binding. The conditions noted are these: covalent; chromophore; dark Pr state, 2.1 A refinement; also difference map 700 ms after 640 nm light.

Assay [2] deals with T2, photoactive yellow protein (PYP) (Halorhodospira halophila, UniProt P16113).
T2 construct: full length, 125 amino acids, 14 kDa; overexpressed in Escherichia coli; chromophore attached to the conserved cysteine
T2 sequence (P16113 1-125): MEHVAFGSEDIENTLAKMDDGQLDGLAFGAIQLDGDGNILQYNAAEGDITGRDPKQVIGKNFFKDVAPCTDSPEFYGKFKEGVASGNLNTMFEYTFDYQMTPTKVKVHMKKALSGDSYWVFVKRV
The description is as above. Format: binding. The note with it: covalent; thioester to conserved cysteine; space group P6_5, 1.8 A (fixed target) and 1.9 A (tape drive); PEG 4000, MES pH 6.5.

On to `C=CC1=C(C)/C(=C/C2=NC(=C\c3[nH]c(/C=C4\NC(=O)C(C)=C4C=C)c(C)c3CCC(=O)O)/C(CCC(=O)O)=C2C)NC1=O` [biliverdin], for which the “serial synchrotron X-ray crystallography (room temperature)” value in assay [1] is given as “The DED features, localized to the BV chromophore, indicate displacement of the BV”.
On to `O=C(O)/C=C/c1ccc(O)cc1` [p-coumaric acid], for which, in assay [2], the “serial synchrotron X-ray crystallography (room temperature)” value is “The pCA chromophore pocket is marked by the red box”.
